Here are results for 21 compounds from patent publication US5744320A (priority 1995, dated 1998).

For assay [1], the target named is T1, Firefly Luciferase (Photinus pyralis, UniProt P08659, K549A/L550V/N119G/N50D/S548I).
T1 construct: host or cells: Chinese hamster ovary (CHO) cells, transient transfection, cleared lysate
Put plainly: biochemical. It counts as biochemical.

The target in assay [2] is T2, Renilla Luciferase (Renilla reniformis, UniProt P27652).
T2 sequence (P27652 1-311): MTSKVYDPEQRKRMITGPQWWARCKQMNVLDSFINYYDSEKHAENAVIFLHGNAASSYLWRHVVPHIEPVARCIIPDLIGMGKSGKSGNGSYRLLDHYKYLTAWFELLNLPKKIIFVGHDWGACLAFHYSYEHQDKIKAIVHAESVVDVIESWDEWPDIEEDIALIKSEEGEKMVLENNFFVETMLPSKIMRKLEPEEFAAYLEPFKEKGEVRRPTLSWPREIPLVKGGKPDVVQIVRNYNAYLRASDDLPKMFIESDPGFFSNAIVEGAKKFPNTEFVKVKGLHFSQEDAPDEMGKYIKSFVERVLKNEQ
Put plainly: Quenching of the luminescent reaction of Renilla luciferase by RLQ reagents (Table 3). It counts as biochemical. The procedure: Numerous chemical compounds were tested individually and in combination for their ability to rapidly quench luciferase catalyzed luminescent reactions. Table 1 and Table 3 present the potency of quenching firefly and Renilla luciferases, respectively, for representative concentrations of the compounds tested. The percentage of residual luminescent signal measured after addition of the test compound is indicative of its quenching efficiency. Whether used individually or in combination at varying concentrations, useful quench formulations should be capable of reducing luminescence from the luciferase reactions by 1,000-fold, i.e., to 0.1% of the starting luminescent emission.
Renilla luciferase reactions were performed by adding 100 μl of purified Renilla luciferase (typically diluted to 0.3 μg per ml in 75 mM HEPES, 0.02% BSA; pH 8) to a luminometer tube containing an equal volume of Renilla substrate solution (7.5 mM sodium acetate, 10 mM CDTA, 400 mM sodium sulfate, 25 μM APMBT, 15 mM sodium pyrophosphate, 2 μM coelenterazine; pH 5.5). Photon emission was quantified as previously described. The individual and combined chemical formulations summarized in Table 3 were evaluated for their ability to quench Renilla luciferase luminescence by adding 100 μl of the test solution to the luminescent reaction, then quantifying residual light emission as before.

Assay [3] concerns the target T2, Renilla Luciferase. Put plainly: Compatibility of BLA and BLQ reagent chemicals with the luminescent reaction of Renilla luciferase (Table 4). The class given is biochemical. From the text: Implicit to the concept of an integrated (i.e., sequential-measurement) dual-enzyme reporter assay is the necessity to efficiently quench luminescence from the first reporter enzyme such that the activity of the second luminescent reporter is not inhibited. Therefore a quench reagent is required that is extremely potent in quenching luminescence from the firefly reaction but can exist as a passive component in the subsequent luminesces reaction catalyzed by Renilla luciferase. Selected chemical components of Beetle Luciferase Activation (BLA) Reagent, and chemicals identified in Table 1 as candidate Beetle Luciferase Quench (BLQ) Reagents, were further evaluated to assess any inhibitory interaction they may have with the luminescent reaction catalyzed by Renilla luciferase. Table 4 summarizes the affect of these selected chemicals on the luminescent activity of Renilla luciferase. Because of its potent inhibitory affect on the firefly reaction, sodium pyrophosphate (Na4 PPi) was tested first. 100 μl Mathews' Buffer supplemented with 2 μM benzyl-coelenterazine and 15 mM Na4 PPi was dispensed into a luminometer tube containing approximately 3 ng of purified Renilla luciferase in 100 μl Mathews' Buffer, and luminescence was quantified. […]

The target of assay [4] is T1, Firefly Luciferase. Put plainly: biochemical. To be noted: read-out: Percent (%) Residual Firefly Luciferase Activity.
Protocol: Assays were performed using a cell extract prepared from CHO cells expressing firefly luciferase (described in detail below) and further supplemented with purified Renilla luciferase (approximately 0.3 μg/ml). Thus, the prepared extract simulates the experimental condition in which a single cell population is induced to simultaneously express two distinct luciferase reporter enzymes. Reactions to determine Renilla luciferase activity were conducted by first dispensing 10 μl of extract into a luminometer tube containing 100 μl BLA Reagent (75 mM HEPES, 4 mM MgSO4, 20 mM DTT, 100 μM EDTA, 530 μM ATP, 270 μM CoA, 470 μM beetle luciferin: pH 8.0), then adding 100 μl of one of the various BLQRLA test reagents. The 100% control value for Reporter #1, the firefly luciferase-mediated luminescent reaction, was determined by quantifying light emission from said reaction prior to addition of the designated BLQRLA Reagent. The 100% control value for Reporter #2, the Renilla luciferase-mediated luminescent reaction, was determined using the dual-reporter assay format in which
control BLQRLA Reagent (7.5 mM acetic acid, 15 mM Na4 PPi, 400 mM Na2 SO4, 2 μM coelenterazine; pH 5.0) was added to the firefly luciferase reaction in a 1:1 volume ratio.
[5] abbreviates: read-out: Percent (%) Residual Firefly Luciferase Activity.
The mark [6] stands for this setting: assay concentration 0.33% (v/v).

T1 sequence (P08659 whole entry N50D/N119G/S548I/K549A/L550V): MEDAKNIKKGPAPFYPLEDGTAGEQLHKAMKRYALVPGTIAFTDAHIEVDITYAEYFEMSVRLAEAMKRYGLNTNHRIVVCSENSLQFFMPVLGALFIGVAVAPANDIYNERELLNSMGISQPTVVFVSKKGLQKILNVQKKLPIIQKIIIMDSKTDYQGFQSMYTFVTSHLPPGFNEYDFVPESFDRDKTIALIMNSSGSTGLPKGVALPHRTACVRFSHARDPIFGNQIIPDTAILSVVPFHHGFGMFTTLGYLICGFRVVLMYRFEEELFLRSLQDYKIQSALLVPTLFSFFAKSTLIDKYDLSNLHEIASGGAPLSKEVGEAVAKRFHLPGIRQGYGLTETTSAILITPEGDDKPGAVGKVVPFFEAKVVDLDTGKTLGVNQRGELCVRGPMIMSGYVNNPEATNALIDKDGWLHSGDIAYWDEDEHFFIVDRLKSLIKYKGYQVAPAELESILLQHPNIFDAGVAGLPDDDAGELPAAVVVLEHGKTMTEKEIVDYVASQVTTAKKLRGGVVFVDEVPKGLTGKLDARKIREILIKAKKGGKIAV

Regarding `O=C(O)CN(CC(=O)O)[C@@H]1CCCC[C@H]1N(CC(=O)O)CC(=O)O` (relative stereo) [CDTA, trans-1,2,-Diaminocyclohexane-N,N,N',N'-tetraacetic acid], the remaining activity at 15400 µM on Firefly Luciferase [1] (setting [5]) worked out at 0.1%.
As for `Cc1ccc2nc(-c3ccc(N)cc3)sc2c1` [APMBT, 2-(4-aminophenyl)-6-methylbenzothiazole], on Firefly Luciferase [1] (setting [5]), the remaining activity at 7.6 µM came out at 0.33%.
For `CCCCCCCCCCP(C)(C)=O` [APO-10, Dimethyldecylphosphine Oxide], the remaining activity at 1 % at Firefly Luciferase [1] (setting [5]) came to 1.9%.
For `c1ccc2scnc2c1` [BT, Benzothiazole], the remaining activity at 3000 µM on Firefly Luciferase [1] (setting [5]) came to 2.3%.
`O=C(O)CC(O)(CC(=O)O)C(=O)O` [Citric Acid, pH 3, citric acid]: at Renilla Luciferase [2] (assay concentration 6.67 mM, read-out: Percent (%) Residual Renilla Luciferase Activity), the remaining activity at 6670 µM stood at 5.3%.
As for `O=C(O)c1csc(-c2nc3ccc(O)cc3s2)n1` [Dehydroluciferin, 2-(6'-Hydroxy-2'-benzothiazolyl)-thiazole-4-carboxylic acid], the “Percent (%) Residual Firefly Luciferase Activity” value on Firefly Luciferase [1] (assay concentration: Saturating) is given as 0.064%.
As to `O=C(O)CN(CCN(CC(=O)O)CC(=O)O)CC(=O)O` [EDTA, Ethylenediaminetetraacetic acid], on Firefly Luciferase [1] (setting [5]), the remaining activity at 22700 µM amounted to 0.13%.
As to `Oc1ccccc1-c1nc2ccccc2s1` [HPBT, 2(O-Hydroxyphenyl)benzothiazole], the remaining activity at 30 µM at Firefly Luciferase [1] (setting [5]) came to 44%.
For `O=P([O-])([O-])O.[K+].[K+]` [K2 HPO4], the “Percent (%) Residual Firefly Luciferase Activity” value at Firefly Luciferase [1] (assay concentration 190 mM) is reported as 8.3%.
For the compound `O=S(=O)([O-])[O-].[Na+].[Na+]` [Na2 SO4, sodium sulfate], the “Percent (%) Residual Firefly Luciferase Activity” value on Firefly Luciferase [1] (assay concentration 400 mM) worked out at 10%.
As to `O=P([O-])([O-])OP(=O)([O-])[O-].[Na+].[Na+].[Na+].[Na+]` [Na4 PPi, Tetrasodium Pyrophosphate], the remaining activity at 31000 µM at Firefly Luciferase [1] (setting [5]) turned out to be 0.12%. For the same compound, the “inhibitory effect on the luminescent reaction catalyzed by Renilla luciferase” value at Renilla Luciferase [3] (Mathews' Buffer with 15 mM Na4 PPi added 1:1, compared to control lacking sodium pyrophosphate) is “no inhibitory affect”. For the same compound, the activity at 7500 µM at Renilla Luciferase [3] (assay concentration 7.5 mM, control = 100%, read-out: Percent (%) Renilla Luciferase Activity) was found to be 102%. At Firefly Luciferase [4], the remaining activity at 7500 µM turned out to be 1%.
As for `[Cl-].[Na+]` [NaCl], the “Percent (%) Residual Firefly Luciferase Activity” value at Firefly Luciferase [1] (assay concentration 400 mM) is listed as 8.3%.
With `[I-].[Na+]` [NaI, sodium iodide], at Renilla Luciferase [2] (assay concentration 330 mM), the “Percent (%) Residual Renilla Luciferase Activity” value is reported as 5.9%. The “Percent (%) Residual Firefly Luciferase Activity” value on Firefly Luciferase [1] (assay concentration 400 mM) was found to be 0.078%.
Consider `O=[N+]([O-])[O-].[Na+]` [NaNO3], for which, at Firefly Luciferase [1] (assay concentration 400 mM), the “Percent (%) Residual Firefly Luciferase Activity” value worked out at 2.1%.
Regarding `c1ccc(-c2nc3ccccc3s2)cc1` [PBT, 2-Phenylbenzothiazole], the remaining activity at 150 µM at Firefly Luciferase [1] (assay concentration 0.15 mM, read-out: Percent (%) Residual Firefly Luciferase Activity) was 7.5%.
As for `CCCCCCCCCCCCOS(=O)(=O)[O-].[Na+]` [SDS, Sodium Dodecyl Sulfate], on Renilla Luciferase [2] (assay concentration 0.33% (w/v), read-out: Percent (%) Residual Renilla Luciferase Activity), the remaining activity at 0.33 % worked out at 0.00029%. For the same compound, the remaining activity at 0.3 % on Firefly Luciferase [1] (setting [5]) worked out at 0.079%.
Consider `CC(C)O` [iso-Propanol, iso-propanol], for which the remaining activity at 14.4 % on Firefly Luciferase [1] (setting [5]) turned out to be 2.3%.
Regarding `CCCCO` [n-Butanol, n-butanol], at Renilla Luciferase [2] (assay concentration 1.67% (v/v), read-out: Percent (%) Residual Renilla Luciferase Activity), the remaining activity at 1.67 % was determined as 4.5%.
`Nc1ncnc2c1ncn2[C@@H](CO)O[C@@H](CO)COP(=O)(O)OP(=O)(O)OP(=O)(O)O` [or-ATP, Adenosine 5'-Triphosphate 2',3'-acyclic dialcohol, Periodate Oxidized, Borohydride Reduced]: the remaining activity at 7600 µM on Firefly Luciferase [1] (setting [5]) was 0.78%.
Regarding Triton ® X-100, the “Percent (%) Residual Renilla Luciferase Activity” value on Renilla Luciferase [2] (setting [6]) is listed as 3.1%.
The same measure, in the same setting: for Tween ®20 the value was 3.4%.
